Data published in patent publication US11261183B2, “Sulfoximine glycosidase inhibitors” (Asceneuron SA, priority 2016, dated 2022).

Biological target: Human O-GlcNAcase (His-Tagged hOGA) (Homo sapiens (Human), UniProt O60502)
Test: Human O-GlcNAcase enzyme inhibition assay
Type: biochemical
Settings: His-Tagged hOGA 20 nM, FL-GlcNAc 10 μM, 60 min, room temperature, pH 6.5; read-out: Enzymatic OGA IC50
Procedure: Example B01: Human O-GlcNAcase enzyme inhibition assay
5 μl of the appropriate concentration of a solution of inhibitor in McIlvaine's Buffer (pH 6.5) in 2% DMSO (for a dose response curve calculation) is added into each well of a 384-well plate (Greiner, 781900). Then, 20 nM of His-Tagged hOGA and 10 μM of FL-GlcNAc (Fluorescein mono-beta-D-(2-deoxy-2-N-acetyl) glucopyranoside; Marker Gene Technologies Inc, M1485) were added to the 384-well plate for a final volume of 20 μl. After incubation for 60 min at room temperature, the reaction was terminated by the addition of 10 μL of stop buffer (200 mM glycine, pH 10.75).

Human O-GlcNAcase (His-Tagged hOGA), sequence (O60502 whole entry): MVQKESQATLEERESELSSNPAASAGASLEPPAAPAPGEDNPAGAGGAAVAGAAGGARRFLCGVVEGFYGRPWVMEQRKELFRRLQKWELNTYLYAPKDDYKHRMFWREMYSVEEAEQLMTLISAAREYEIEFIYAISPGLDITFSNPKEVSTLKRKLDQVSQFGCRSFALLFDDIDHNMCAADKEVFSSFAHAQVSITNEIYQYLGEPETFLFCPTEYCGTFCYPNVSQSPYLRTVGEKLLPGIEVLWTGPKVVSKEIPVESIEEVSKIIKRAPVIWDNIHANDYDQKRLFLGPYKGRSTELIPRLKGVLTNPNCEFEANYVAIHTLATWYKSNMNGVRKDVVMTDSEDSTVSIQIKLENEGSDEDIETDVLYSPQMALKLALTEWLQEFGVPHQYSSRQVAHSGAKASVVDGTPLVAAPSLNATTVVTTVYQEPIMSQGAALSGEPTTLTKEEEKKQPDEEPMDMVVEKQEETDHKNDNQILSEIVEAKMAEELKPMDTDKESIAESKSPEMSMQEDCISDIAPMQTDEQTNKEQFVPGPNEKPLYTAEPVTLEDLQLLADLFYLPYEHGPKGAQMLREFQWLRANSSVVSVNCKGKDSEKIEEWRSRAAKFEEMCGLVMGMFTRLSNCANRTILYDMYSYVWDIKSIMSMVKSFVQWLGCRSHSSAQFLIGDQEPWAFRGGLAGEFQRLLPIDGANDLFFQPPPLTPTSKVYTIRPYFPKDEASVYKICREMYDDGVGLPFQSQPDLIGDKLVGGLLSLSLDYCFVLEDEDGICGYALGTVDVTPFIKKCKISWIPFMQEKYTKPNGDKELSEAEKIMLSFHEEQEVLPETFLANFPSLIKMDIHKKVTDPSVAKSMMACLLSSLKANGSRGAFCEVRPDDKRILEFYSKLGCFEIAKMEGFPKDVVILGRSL

| IC50 [nM] | SMILES |
| --- | --- |
| 1000 to 10000 | CC(c1ccc2c(c1)OCC2)N1CCN(c2ncc(S(C)(=N)=O)cn2)CC1 (single isomer, unassigned) [Example 15] |
| 1000 to 10000 | CC(c1ccc2scnc2c1)N1CCN(c2ncc(S(C)(=N)=O)cn2)CC1 (single isomer, unassigned) [Example 41] |
| < 50 | CC(c1ccc2scnc2c1)N1CCN(c2ncc(S(C)(=N)=O)cn2)CC1 (single isomer, unassigned) [Example 39, (R)-(2-(4-(1-(benzo[d]thiazol-5-yl)ethyl)piperazin-1-yl)pyrimidin-5-yl)(imino)(methyl)-λ^6-sulfanone or (S)-(2-(4-(1-(benzo[d]thiazol-5-yl)ethyl)piperazin-1-yl)pyrimidin-5-yl)(imino)(methyl)-λ^6-sulfanone] |
| < 50 | CC(c1ccc2c(c1)OCC2)N1CCN(c2ncc(S(C)(=N)=O)cn2)CC1 (single isomer, unassigned) [Example 16, (2-(4-((S)-1-(2,3-dihydrobenzofuran-6-yl)ethyl)piperazin-1-yl)pyrimidin-5-yl)(imino)(methyl)-λ^6-sulfanone or (2-(4-((R)-1-(2,3-dihydrobenzofuran-6-yl)ethyl)piperazin-1-yl)pyrimidin-5-yl)(imino)(methyl)-λ^6-sulfanone] |
| 200 to 1000 | CC(c1ccc2c(c1)OCC2)N1CCN(c2ncc(S(C)(=N)=O)cn2)CC1 (single isomer, unassigned) [Example 13] |
| < 50 | CC(C)N=S(C)(=O)c1cnc(N2CCN(C(C)c3ccc4c(c3)OCC4)CC2)nc1 (single isomer, unassigned) [Example 19] |
| 1000 to 10000 | CC(c1ccc2scnc2c1)N1CCN(c2ncc(S(C)(=N)=O)cn2)CC1 (single isomer, unassigned) [Example 40] |

The next lines start with the molecule.

| SMILES | IC50 [nM] |
| --- | --- |
| CC(c1ccc2scnc2c1)N1CCN(c2ncc(S(C)(=N)=O)cn2)CC1 (single isomer, unassigned) [Example 38, (R)-(2-(4-(1-(benzo[d]thiazol-5-yl)ethyl)piperazin-1-yl)pyrimidin-5-yl)(imino)(methyl)-λ^6-sulfanone or (S)-(2-(4-(1-(benzo[d]thiazol-5-yl)ethyl)piperazin-1-yl)pyrimidin-5-yl)(imino)(methyl)-λ^6-sulfanone] | 50 to 200 |
| CN=S(C)(=O)c1ccc(N2CCN(C(C)c3ccc4scnc4c3)CC2)nc1 (racemic) [Example 30, (6-(4-(1-(benzo[d]thiazol-5-yl)ethyl)piperazin-1-yl)pyridin-3-yl)(methyl)(methylimino)-λ^6-sulfanone] | 50 to 200 |
| CCCS(=N)(=O)c1cnc(N2CCN(C(C)c3ccc4sc(C)nc4c3)CC2)nc1 (racemic) [Example 44, Imino(2-(4-(1-(2-methylbenzo[d]thiazol-5-yl)ethyl)piperazin-1-yl)pyrimidin-5-yl)(propyl)-λ^6-sulfanone] | < 50 |
| CCS(=N)(=O)c1cnc(N2CCN(C(C)c3ccc4sc(C)nc4c3)CC2)nc1 (racemic) [Example 43, ethyl(imino)(2-(4-(1-(2-methylbenzo[d]thiazol-5-yl)ethyl)piperazin-1-yl)pyrimidin-5-yl)-λ^6-sulfanone] | < 50 |
| CC(C)N=S(C)(=O)c1cnc(N2CCN(C(C)c3ccc4scnc4c3)CC2)nc1 (racemic) [Example 28, (2-(4-(1-(benzo[d]thiazol-5-yl)ethyl)piperazin-1-yl)pyrimidin-5-yl)(isopropylimino)(methyl)-λ^6-sulfanone] | 50 to 200 |
| Cc1nc2cc(C(C)N3CCN(c4ncc5c(n4)CCS(=N)(=O)C5)CC3)ccc2s1 (racemic) [Example 58, 6-imino-2-(4-(1-(2-methylbenzo[d]thiazol-5-yl)ethyl)piperazin-1-yl)-5,6,7,8-tetrahydro-6λ^4-thiopyrano[4,3-d]pyrimidine 6-oxide] | < 50 |
| CC(c1ccc2nccnc2c1)N1CCN(c2ncc(S(C)(=N)=O)cn2)CC1 (racemic) [Example 57, imino(methyl)(2-(4-(1-(quinoxalin-6-yl)ethyl)piperazin-1-yl)pyrimidin-5-yl)-λ^6-sulfanone] | 50 to 200 |
